For one data set, the system named is protein secretion. Briefly: Non-selective inhibition at protein secretion. The note with it: Homo sapiens; HepG2 cells; read-out: IC50-C non-selective inhibition at protein secretion. In kind it is cell-based. An excerpt: (§1) PCSK9 expression is actively regulated at transcription levels. Statins are known to stimulate PCSK9 transcription which in turn curbs the efficacy of statins in LDL lowering in humans. […] A number of primary and secondary assays to measure PCSK9 secretion/modulation in response to putative active agents are known. Primary assays: PCSK9 Secretion HepG2 SP/CRC (% Inhibition/IC50); PCSK9 Secretion Cell Health HepG2 SP/CRC (% Inhibition/IC50); and Metabolic Luciferase Reporter Assay CRC (IC50). Secondary assays: PCSK9 ELISA HepG2 CRC (IC50); ApoA-1 ELISA HepG2 CRC (IC50), and Profiling Biochemical Activity—Kinase Panel SP/CRC (% Efficacy/IC50). All of these assays are publicly accessible via Lilly's Open Innovation Drug Discovery program (as well as other sources).

A further data set deals with IL17 secretion. The data set is described as follows: IL17 secretion from human PBMCs stimulated with IL23, anti-CD3 and anti-CD28. The note with it: PBMC. In kind it is cell-based. From the text:
The present compounds are thus useful to treat autoimmune disorders such as (but not limited to) arthritis, multiple sclerosis, psoriasis, and inflammatory bowel disease. The IL-17 pathway plays an essential pathological role in many autoimmune diseases including arthritis, multiple sclerosis, psoriasis, and inflammatory bowel disease. IL-17 is produced and secreted by at least two classes of lymphocytes, δγ and CD4+ T cells (Th17). The orphan nuclear receptor RORg is required for the differentiation of Th17 cells where over-expression in human and rodent T cells induces transcripts found in Th17 cells encoding key cytokines for the IL23 receptor and chemokines for the CCR6 receptor. In addition to RORg, recent global analysis of transcription factors has highlighted the molecular complexity of the Th17 differentiation program.
Active compounds are identified by measuring their ability to inhibitor IL17 secretion from human peripheral blood mononuclear cells (PBMCs) following stimulation of memory T cells by IL23, anti-CD3, and anti-CD28. See M. Ciofani, et al (2012) “A validated regulatory network for Th17 cell specification.” Cell, 151:289-303.

The test system of a further data set is PCSK9 secretion. The data set is described as follows: PCSK9 secretion in HepG2 cells. The following applies: Homo sapiens. In kind it is cell-based.
Source text: as §1

The nature of data set [1]: Cytotoxicity (PCSK9 Secretion Cell Health HepG2). The following applies: human, HepG2 cells; read-out: IC50-B cytotoxicity. In kind it is cell-based.
Source text: as §1

In the next data set the test system is IL5. The data set is described as follows: IL5 inhibition. It counts as cell-based.
The test system of another data set is GLP-1 secretion. Briefly: GLP-1 secretion (ELISA). In kind it is cell-based. An excerpt:
Similarly, the present indole compounds also modify the activity of glucagon-like peptide 1 (GLP-1), which plays a critical role in hyperglycemia and diabetes in humans. Glucagon-like peptide 1 (GLP-1) is derived from transcription of the proglucagon gene followed by post-translational modifications of proglucagon to the following biologically active peptides: GLP-1 (7-37) and GLP-1 (7-36)-NH2. GLP-1 secretion by ileal L cells is dependent on the presence of nutrients in the lumen of the small intestine. GLP-1 is a potent anti-hyperglycemic hormone that induces glucose-dependent insulin secretion and suppresses glucagon secretion.
GLP-1 secretion is measured using an ELISA designed to detect the appropriate forms of GLP-1 secreted from these cells. See, for example, Gareth E. Kim and Patricia L. Brubaker (December 2006) “Glucagon-Like Peptide 1 Secretion by the L-Cell,” Diabetes: 55 (supplement 2).
(In an ELISA, binding on a coated surface is turned into a signal by an enzyme label.)

The mark [2] stands for this setting: HepG2 cells, read-out: IC50-A inhibition of PCSK9 secretion.

Each structure is given as a SMILES string. Read-outs that look alike come from different tables or passages of the source. A value given as a limit tells only on which side of the number the result lay.

What is called IC50 is the concentration at which inhibition is half-maximal. A word on the melting point: it is the temperature, or range, at which the solid turns liquid. As to `COc1ccc(C2C[C@@H]2c2c(C)c3ccccc3n2S(=O)(=O)c2ccc(C)cc2)cc1` (stereo in doubt) [8a, 2-(2-(4-methoxyphenyl)cyclopropyl)-3-methyl-1-tosyl-1H-indole], the melting point was 155 to 156 °C. Moreover, the IC50 in the data set with protein secretion was more than 50 µM. The compound further showed an IC50 with IL17 secretion of 10 µM. In addition, the IC50 in the data set with PCSK9 secretion (HepG2, read-out: PCSK9, IC50) came out at 1.8 µM. The IC50 in the data set with PCSK9 secretion (setting [2]) is 1.8 µM. Also, the IC50 in data set [1] was more than 50 µM. The IC50 with IL5 was more than 30 µM.

`Cc1ccc(S(=O)(=O)n2c([C@@H]3CC3c3ccccc3)c(C)c3ccccc32)cc1` (stereo in doubt) [8b, 3-methyl-2-(2-phenylcyclopropyl)-1-tosyl-1H-indole] returned a melting point of 156 to 157 °C. The IC50 in the data set on PCSK9 secretion (HepG2, read-out: PCSK9, IC50) came out at 21 µM. Besides, the half-inhibitory concentration (IC50) in the data set on PCSK9 secretion (setting [2]) turned out to be 21 µM.

A word on the EC50: it is the concentration at which the effect is half-maximal. A higher EC50 goes with a need for much substance. In turn, `Cc1ccc(S(=O)(=O)n2c(C3C[C@]3(CO)c3ccccc3)c(C)c3ccccc32)cc1` (stereo in doubt) [8i, (2-(3-methyl-1-tosyl-1H-indol-2-yl)-1-phenylcyclopropyl)methanol] registered a melting point of 57 to 58 °C. Further, in the data set with GLP-1 secretion, the midpoint of the response, the EC50, lay at 7.3 µM.

Consider `Cc1ccc(S(=O)(=O)n2c([C@H]3C[C@H]3c3ccc4c(c3)OCO4)c(C)c3ccccc32)cc1` [8f, 2-(2-(benzo[d][1,3]dioxol-5-yl)cyclopropyl)-3-methyl-1-tosyl-1H-indole], for which the melting point lay within 106 to 107 °C. Besides, in the data set on protein secretion, the IC50 is more than 50 µM. The compound further gave an IC50 in the data set with IL17 secretion of 7.3 µM. In addition, in the data set with PCSK9 secretion (HepG2, read-out: PCSK9, IC50), the IC50 was found to be 9.9 µM. Besides, the IC50 in the data set on PCSK9 secretion (setting [2]) was found to be 9.9 µM. In data set [1], the IC50 was more than 50 µM. Besides, the IC50 with IL5 is more than 30 µM.

Turning to `CCc1c(C2CC2c2ccc(OC)cc2)n(S(=O)(=O)c2ccc(C)cc2)c2ccccc12` (stereo not shown) [10g, 3-ethyl-2-(2-(4-methoxyphenyl)cyclopropyl)-1-tosyl-1H-indole], the IC50 was more than 50 µM in the data set on protein secretion; 0.7 µM in the data set on PCSK9 secretion (HepG2, read-out: PCSK9, IC50); 0.7 µM in the data set on PCSK9 secretion (setting [2]); more than 50 µM in data set [1].

For `COc1ccc(C2C=CCCc3c2c2ccccc2n3S(=O)(=O)c2ccc(C)cc2)cc1` (stereo not shown) [compound 14, (Z)-10-(4-methoxyphenyl)-5-tosyl-5,6,7,10-tetrahydrocyclohepta[b]indole], the melting point is 75 to 76 °C. The compound also yielded an EC50 in the data set on GLP-1 secretion of 28.4 µM.

The record behind these values is patent US10174008B2, “Synthesis of cyclopropyl indoles and cyclohepta[B]indoles, pharmaceutical compositions containing them and method of using them” (WISCONSIN ALUMNI RESEARCH FOUNDATION, priority 2014, dated 2019).
